Test results: patent publication US20020137929A1, “1 - (3-heterocyclylphenyl) isothiourea, -isourea, -guanidine and -amidine herbicidal agents” (Intellectual Property Department, BASF Aktiengesellschaft, priority 1998, published 2002)

How the values were obtained:
[1] = test system: ABUTH (Velvetleaf); assay: Postemergence herbicidal evaluation; type: in vivo, Abutilon theophrasti; conditions: postemergence
Summary of the method: (§1)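 Rate range approx. 0.0156–0.500 kg/ha. Foliar application at 40 psi to ~2-week seedlings; surfactant 0.5% TWEEN 20 in 50/50 acetone/water. Evaluation 4–5 wk post-treatment by 0–9 visual injury score, means of replicate tests.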

[2] = test system: IPOHE (Morningglory, Ivyleaf); assay: Postemergence herbicidal evaluation; type: in vivo, Ipomoea hederacea; conditions: postemergence
Summary of the method: as §1

[3] = test system: TRZAWR (Wheat, Winter, cv Riband); assay: Postemergence herbicidal evaluation; type: in vivo, Triticum aestivum; conditions: postemergence
Summary of the method: as §1

[4] = test system: CHEAL (Lambsquarters, Common); assay: Preemergence herbicidal evaluation; type: in vivo, Chenopodium album; conditions: preemergence, rated 4-5 weeks after treatment, 0-9 scale
Summary of the method: (§2)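 Preemergence soil application of compound, sprayed in aqueous acetone at rates equivalent to about 0.0156 to 0.500 kg per hectare onto freshly sown cups. Plant response was judged by eye on a 0-9 scale four to five weeks later.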

[5] = test system: IPOHE (Morningglory, Ivyleaf); assay: Preemergence herbicidal evaluation; type: in vivo, Ipomoea hederacea; conditions: preemergence, rated 4-5 weeks after treatment, 0-9 scale
Summary of the method: as §2

[6] = test system: ECHCG (Barnyardgrass); assay: Preemergence herbicidal evaluation; type: in vivo, Echinochloa crus-galli; conditions: preemergence, rated 4-5 weeks after treatment, 0-9 scale
Summary of the method: as §2

[7] = test system: SETVI (Foxtail, Green); assay: Preemergence herbicidal evaluation; type: in vivo, Setaria viridis; conditions: preemergence, rated 4-5 weeks after treatment, 0-9 scale
Summary of the method: as §2

[8] = test system: ORYSAT (Rice, Tebonnet); assay: Preemergence herbicidal evaluation; type: in vivo, Oryza sativa, (L.) Tebonnet; conditions: preemergence, rated 4-5 weeks after treatment, 0-9 scale
Summary of the method: as §2

[9] = test system: TRZAWR (Wheat, Winter, cv Riband); assay: Preemergence herbicidal evaluation; type: in vivo, Triticum aestivum; conditions: preemergence, rated 4-5 weeks after treatment, 0-9 scale
Summary of the method: as §2

[10] = test system: ECHORC (Watergrass (Calif.)); assay: Preemergence weed control under flooded paddy conditions; type: in vivo, Echinochloa oryzoides; conditions: rated 3-4 weeks after treatment
Summary of the method: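 Seeds or propagules sown in top 0.5 cm of silt loam soil, flooded 1.5 to 3 cm above surface throughout. Compound in 50/50 v/v aqueous/acetone pipetted into flood water at about 0.0313 to 0.500 kg/ha. Visual 0-9 rating versus control after three to four weeks in greenhouse.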

[11] = test system: MOOVA (Monochoria); assay: as above; type: in vivo, Monochoria vaginalis; conditions: rated 3-4 weeks after treatment
Summary of the method: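 Greenhouse paddy assay. Acetone/water (50/50 v/v) solutions dosed into flood water, equivalent to about 0.0313 to 0.500 kg/ha active ingredient, over seeds planted 0.5 cm deep in silt loam. Score: 0-9 visual, based on stand, vigor, malformation, size and chlorosis, 3 to 4 weeks after treatment.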

[12] = test system: ECHORC (Watergrass (Calif.)); assay: Postemergence weed control under flooded paddy conditions; type: in vivo, Echinochloa oryzoides; conditions: postemergence weeds, rated 3 to 4 weeks after treatment
Summary of the method: (§3)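 With weeds 3 to 5 cm tall and rice at the 1.5 to 2.5 leaf stage, containers were flooded and water held 1.5 to 3 cm above soil. Compounds in 50/50 v/v aqueous/acetone went into the flood water at about 0.0313 to 0.500 kg/ha a.i. Effects were visually rated 0–9 against controls after three to four weeks in the greenhouse.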

[13] = test system: CYPIR (Rice Flatsedge); assay: as above; type: in vivo, Cyperus iria; conditions: postemergence weeds, rated 3 to 4 weeks after treatment
Summary of the method: as §3

With `CN1C(=O)C(CC(=O)OCCF)SC1=Nc1cc(-n2c(=O)cc(C(F)(F)F)n(C)c2=O)c(F)cc1Cl` (stereo not shown) [Compound 93, 2-Fluoroethyl 2-{{2-chloro-5-[3,6-dihydro-3-methyl-2,6-dioxo-4-(trifluoromethyl)-1(2H)-pyrimidinyl]-4-fluorophenyl}imino}-3-methyl-4-oxo-5-thiazolidineacetate] the ABUTH herbicidal rating ([1]; rate 0.0158 kg/ha) was 9.0, the ABUTH herbicidal rating ([1]; rate 0.0315 kg/ha) was 9.0 and the ABUTH herbicidal rating ([1]; rate 0.0630 kg/ha) was 9.0. The IPOHE herbicidal rating ([2]; rate 0.0158 kg/ha) was 9.0, the IPOHE herbicidal rating ([2]; rate 0.0315 kg/ha) was 9.0 and the IPOHE herbicidal rating ([2]; rate 0.0630 kg/ha) was 9.0. The TRZAWR herbicidal rating ([3]; rate 0.0158 kg/ha) was 5.0, the TRZAWR herbicidal rating ([3]; rate 0.0315 kg/ha) was 6.0 and the TRZAWR herbicidal rating ([3]; rate 0.0630 kg/ha) was 7.5. It also gave a CHEAL rating ([4]; 0.0313 kg/ha) of 3.0, a CHEAL rating ([4]; 0.0625 kg/ha) of 9.0 and a CHEAL rating ([4]; 0.1250 kg/ha) of 9.0. The CHEAL rating ([4]; 0.2500 kg/ha) was 9.0, the IPOHE rating ([5]; 0.0313 kg/ha) was 0.0 and the IPOHE rating ([5]; 0.0625 kg/ha) was 2.0. For the same molecule, the IPOHE rating ([5]; 0.1250 kg/ha) was 9.0, the IPOHE rating ([5]; 0.2500 kg/ha) was 9.0 and the ECHCG rating ([6]; 0.0313 kg/ha) was 0.0. The ECHCG rating ([6]; 0.0625 kg/ha) was 0.0, the ECHCG rating ([6]; 0.1250 kg/ha) was 0.0 and the ECHCG rating ([6]; 0.2500 kg/ha) was 0.0. The SETVI rating ([7]; 0.0313 kg/ha) was 0.0, the SETVI rating ([7]; 0.0625 kg/ha) was 0.0 and the SETVI rating ([7]; 0.1250 kg/ha) was 0.0. The SETVI rating ([7]; 0.2500 kg/ha) was 9.0, the ORYSAT rating ([8]; 0.0313 kg/ha) was 0.0 and the ORYSAT rating ([8]; 0.0625 kg/ha) was 0.0. The ORYSAT rating ([8]; 0.1250 kg/ha) was 2.0, the ORYSAT rating ([8]; 0.2500 kg/ha) was 4.0 and the TRZAWR rating ([9]; 0.0313 kg/ha) was 0.0. For the same molecule, the TRZAWR rating ([9]; 0.0625 kg/ha) was 0.0, the TRZAWR rating ([9]; 0.1250 kg/ha) was 2.0 and the TRZAWR rating ([9]; 0.2500 kg/ha) was 7.0. For the same molecule, the “ECHORC herbicidal effect rating” value ([10]; 0.0313 kg/ha) was 0.0, the “ECHORC herbicidal effect rating” value ([10]; 0.0625 kg/ha) was 3.0 and the “ECHORC herbicidal effect rating” value ([10]; 0.1250 kg/ha) was 4.0. For the same molecule, the “ECHORC herbicidal effect rating” value ([10]; 0.2500 kg/ha) was 7.0, the “MOOVA herbicidal effect rating” value ([11]; 0.0313 kg/ha) was 9.0 and the “MOOVA herbicidal effect rating” value ([11]; 0.0625 kg/ha) was 9.0. The “MOOVA herbicidal effect rating” value ([11]; 0.1250 kg/ha) was 9.0, the “MOOVA herbicidal effect rating” value ([11]; 0.2500 kg/ha) was 9.0 and the “Herbicidal rating ECHORC” value ([12]; Rate 0.0313 kg/ha) was 0.0. For the same molecule, the “Herbicidal rating ECHORC” value ([12]; Rate 0.0625 kg/ha) was 3.0, the “Herbicidal rating ECHORC” value ([12]; Rate 0.1250 kg/ha) was 4.0 and the “Herbicidal rating ECHORC” value ([12]; Rate 0.2500 kg/ha) was 7.0. The “Herbicidal rating CYPIR” value ([13]; Rate 0.0313 kg/ha) was 0.0, the “Herbicidal rating CYPIR” value ([13]; Rate 0.0625 kg/ha) was 0.0 and the “Herbicidal rating CYPIR” value ([13]; Rate 0.1250 kg/ha) was 0.0. The “Herbicidal rating CYPIR” value ([13]; Rate 0.2500 kg/ha) was 0.0.
